How the values were obtained:
[1] = test system: BA/F3 cells expressing MPL 1886InsGG; assay: Proliferation assay, factor-independent BA/F3 cells expressing MPL 1886InsGG; format: cell-based; conditions: factor-independent BA/F3 MPL 1886InsGG, three days
Procedure: (§1) 96 AQueous One solution cell proliferation assay (PROMEGA®). […] Total viable cells were determined every day for 1 week using PI exclusion on a Guava cell counter (GUAVA TECHNOLOGIES®). […] Ten days later, colonies were counted manually or using a GELCOUNT® automated colony counter (OXFORD OPTRONIX®, Oxford, UK).
(§2) MPL was then cloned into a Gateway compatible version of MSCV-IRES-GFP (MIG) by performing an LR recombination reaction. […] One milliliter of viral supernatant was mixed with polybrene (5 mg/ml), HEPES (7.5 mM), and 10^6 BA/F3 cells and placed in a centrifuge at 2500 RPM for 90 minutes at 30° C.

[2] = test system: BA/F3 cells expressing MPL W515L; assay: Proliferation assay, factor-independent BA/F3 cells expressing MPL W515L; format: cell-based; conditions: three days
Procedure: as §1, §2

[3] = test system: primary cells from patient samples; assay: Colony assay of primary patient cells in methocult; format: cell-based, human; conditions: ten days
Procedure: For determination of factor-independent growth, parental BA/F3 cells as well as BA/F3 cells expressing […], or W515L were washed three times and 1 million cells were seeded into triplicate wells of a 6-well plate in R10. Total viable cells were determined every day for 1 week using PI exclusion on a Guava cell counter (GUAVA TECHNOLOGIES®). For colony assays, 200,000 primary cells from patient samples were incubated in the presence of dose gradients of AG490, SU11248, or PTK787 in methocult containing IL-3, GM-CSF, and SCF ([…] TECHNOLOGIES®). Ten days later, colonies were counted manually or using a GELCOUNT® automated colony counter (OXFORD OPTRONIX®, Oxford, UK). For siRNA functional screens on patient samples, a Student's t test was carried out for each well in comparison to both single and pooled non-specific siRNA controls. The mean of the two-tailed p-value was determined for consideration of significance. […] For cell proliferation, cell viability, and colony assays, a Student's t test was carried out for each dose or time point compared with the relevant control cell line or the no drug control.

HEL cells = assay: MTS proliferation assay with kinase inhibitors, HEL cells; format: cell-based; conditions: HEL cells (JAK2 V617F), 72 hours
Procedure: (§3) K562 cells were obtained from American Type Culture Collection (Manassas, Va.). CMK and HEL cells were obtained from the German National Resource Centre for Biological Material (DSMZ). […] For proliferation assays, cells were incubated for 72 hours in the presence of JAK Inhibitor I, JAK3 inhibitor III, AG-490, PP2, or Src Kinase Inhibitor I (EMD BIOSCIENCES®, San Diego, Calif.), and the number of viable cells was determined with the […] 96® AQueous One solution cell proliferation assay (PROMEGA®, Madison, Wis.). For HMC1.1 cell stimulation, cells were serum starved overnight in RPMI supplemented with 0.1% bovine serum albumin, L-glutamine, and penicillin/streptomycin. The following day, cells were stimulated for five minutes with 100 ng/ml recombinant stem cell factor (Peprotech, Rocky Hill, N.J.).
as §1

[4] = test system: primary cells from patient samples; assay: Cell viability assay (MTS) of primary patient cells with inhibitor dose gradients; format: cell-based, human; conditions: cells from CMML patient 07-079, three days
HMC1.1 cells = assay: MTS proliferation assay with small-molecule kinase inhibitors, HMC1.1 cells; format: cell-based, human; conditions: for IC50: 72 hours, MTS assay
Procedure: as §3
(§4) For tyrosine kinase siRNA library knockdown experiments, a Student's t test was carried out for each well in comparison to both single and pooled non-specific siRNA controls. The mean of the two-tailed p-value was determined for consideration of significance and data points with p-value less than 0.05 and mean value less than 70% of non-specific controls were considered significant. For cell proliferation assays, a Student's t test was carried out for each dose point comparing HMC1.1 to K562 cell viability.

[5] = test system: Patient 07-079, ASM with associated CMML; assay: Midostaurin treatment of patient 07-079; format: in vivo, human; conditions: patient 07-079, midostaurin 50 mg bid, briefly in combination with hydroxyurea
Procedure: White blood cell counts were monitored over 9 days. Normal white blood cell counts range from 4−12×10^3 per ml. […] Cells were then stimulated for 15 minutes with thrombopoietin (10 ng/ml) and cell lysates were subjected to immunoblot analysis for phospho or total-JAK2 as well as β-actin. […] Cell proliferation was determined after three days. Values represent the percent mean (normalized to untreated control wells)±s.e.m. (n=3).

K562 cells = assay: MTS proliferation assay with small-molecule kinase inhibitors, K562 control cells; format: cell-based; conditions: concentrations up to and including 10 μM
Procedure: as §3, §4

[6] = biological target: MPL^1886InsGG (thrombopoietin receptor with two base-pair GG insertion in exon 12) (human) (UniProt P40238); assay: cell-based or functional assay; conditions: scale: fold lower dose of thrombopoietin than MPL^WT

## N#C/C(=C\c1ccc(O)c(O)c1)C(=O)NCc1ccccc1 [AG-490]
[1]
  sensitivity to inhibitor: strong sensitivity
[2]
  sensitivity to inhibitor: strong sensitivity
[3]; cells from CMML patient 07-079, methocult
  sensitivity in colony assay: Strong sensitivity
HEL cells
  IC50: 45 µM
[4]
  sensitivity in cell viability assay: Strong sensitivity
HMC1.1 cells
  IC50: > 50 µM

## CC(C)(C)n1nc(-c2ccc(Cl)cc2)c2c(N)ncnc21 [PP2]
HMC1.1 cells
  IC50: 1.5 µM

## Clc1ccc(Nc2nnc(Cc3ccncc3)c3ccccc23)cc1 [PTK787]
[3]; cells from AML patient 07-008, methocult with IL-3, GM-CSF, SCF
  colony formation: blocked by each drug at low nanomolar concentrations

## COc1cc2ncnc(Nc3ccc(Oc4ccccc4)cc3)c2cc1OC [SRC inhibitor I]
HMC1.1 cells
  IC50: 5 µM

## CO[C@@H]1[C@H](N(C)C(=O)c2ccccc2)C[C@H]2O[C@]1(C)n1c3ccccc3c3c4c(c5c6ccccc6n2c5c31)C(=O)NC4 [midostaurin]
[5]
  period to normalization of WBC counts: 5 days

## JAK inhibitor I
K562 cells
  sensitivity to inhibitor: resistant
HMC1.1 cells
  IC50: 5 µM
HMC1.1 cells; JAK inhibitor I dose range plus 1.5 μM PP2, compared with JAK inhibitor alone
  viability in combination with PP2: lower viability readings at all dose points
HMC1.1 cells; maximal reduction despite increasing concentrations
  reduction of viability and proliferation: ~50%

## recombinant thrombopoietin (Peprotech) (ligand)
[6]
  phosphorylation of JAK2, STAT3, STAT5, ERK and AKT (immunoblot) after thrombopoietin stimulation of BA/F3 cells: 10
